The values that follow are results of earlier work, collected in publication PMC4468036 (Bioorganic & medicinal chemistry, 2014).

Some results are limits rather than exact numbers.

The target in one series is δ receptor. Particulars: read-out: IC50 at δ receptor; selectivity of ML140.
Another series deals with μ receptor. Particulars: read-out: IC50 at μ receptor; selectivity of ML140.

As usually defined, the IC50 is the point on the concentration scale where inhibition reaches its midpoint. As to `Cc1ccc(S(=O)(=O)NCc2ccc(C(=O)NCCN(Cc3ccccc3)C(C)C)cc2)cc1` [ML140], the figures for the IC50 on δ receptor and on μ receptor were greater than 32 µM and greater than 24 µM, respectively.
